PubChem BioAssay AID1963844 (Molecular Pharmacology Branch, DTP, NCI, 2024)

Tested on: 422866-222-R5-J1-PDC complex spheroid viability
Experiment: Anticancer human tumor 422866-222-R5-J1-PDC patient-derived pancreatic adenocarcinoma cell line growth inhibition [POLQ]
Details: for IC50: curve of first compound; for viability, T/C: stronger effect = lower value
Procedure: Multicellular complex tumor spheroid response to Polymerase (POL) inhibitors (novobiocin, ART-558, RP6685) in combination with a variety of drugs and investigational agents in selected tumor cell lines
The POL inhibitors (novobiocin, ART-558, and RP6685) were evaluated both individually and in combination with standard of care and investigational anticancer small molecules within a complex spheroid model of solid tumors. . Complex spheroids include a stromal component modeled by human endothelial cells (HUVEC) and fibroblasts modeled by human mesenchymal stem cells (MSCs). The concentration ranges selected for each drug and investigational agent were based upon clinically achievable concentrations if the clinical Cmax of the agent was known.
Compounds. The drugs and investigational agents: novobiocin (NSC847541), ART-558 (NSC835418), RP-6685 (NSC848927), peposertib (NSC802822), ceralasertib (NSC780249), elimusertib (NSC800525), camonsertib (NSC841442), AZD-1390 (NSC803789), olaparib (NSC753686), talazoparib (NSC767125), rucaparib (NSC756644), sotorasib (NSC818433), MRTX-1133 (NSC836407), SN-38 (NSC673596), topotecan (NSC609699), epotoside (NSC141540), doxorubicin (NSC123127), gemcitabine (NSC613327), 5-fluorouracil (NSC19893), paclitaxel (NSC125973), vemurafenib (NSC761431), MSA-2 (NSC828583), SN-011 (NSC837082), adavosertib (NSC754352), prexasertib (NSC758257), carboplatin (NSC241240) and oxaliplatin (NSC266046), were obtained from the National Cancer Institute (NCI) Developmental Therapeutics Program Chemical Repository (21). The FDA-approved anticancer drug set is available from the Developmental Therapeutics Program at https://dtp.cancer.gov/organization/dscb/obtaining/. […] The stock solutions were prepared in dimethyl sulfoxide (DMSO, Sigma-Aldrich, St. Louis, MO, cat. D2650), except for the platinum compounds which were prepared in saline (Quality Biological, Gaithersburg, MD, cat. 114-055-101), at 800-fold the tested concentration and stored at -70 degrees C prior to their use. All drugs and investigational agents were tested over a range starting from a high concentration at or near the clinical Cmax and decreasing in half-log increments. If the clinical Cmax for an agent had not been determined, the highest concentration tested was 10 microM, except for SN-38, which was tested at a high concentration of 1 microM.
Cell Culture. All cells were maintained in an incubator at 37 degrees C and 5% CO2 with 95% humidity. The PDC lines were cultured according to standard operating procedures established by the NCI PDMR (https://pdmr.cancer.gov). Table 3 of the manuscript, lists the cell lines along with the number of the three cell types plated to form the mct-spheroids and media for tumor cell growth. After thawing, all PDC lines, except 997537-175-T-J1-PDC and 415267-285-R-J2-PDC, were cultured in Matrigel-coated flasks prepared with a working solution of 1X Ham's F-12 nutrient mix, without supplementation (Thermo Fisher Scientific, cat. 11765054), 100 U/mL penicillin-streptomycin (Thermo Fisher Scientific, cat. 15140122), and 2.5% Matrigel (Corning Inc., Corning, NY, cat. 354248) for the first three passages. The two PDC lines 997537-175-T-J1-PDC and 415267-285-R-J2-PDC were cultured on uncoated flasks. The 857933-349-R-J2-PDC line was cultured in 6C/Colon 1B media containing advanced DMEM/F-12 (Thermo Fisher Scientific, cat. 12634028), 10 mM HEPES (Thermo Fisher Scientific, cat. 15630080), 1X GlutaMAX supplement (Thermo Fisher Scientific, cat. 35050061), 0.1 mg/mL primocin (InvivoGen, San Diego, CA, cat. ant-pm-2), 10% defined fetal bovine serum, heat inactivated (HyClone Laboratories Inc., Logan, UT, cat. SH30070.03HI), 50% L-WRN conditioned media (ATCC, cat. CRL-3276), 1.25 mM N-Acetyl-L-cysteine (Sigma-Aldrich, cat. A9165), 10 mM nicotinamide (Sigma-Aldrich, cat. N0636), 1X B-27 supplement (Thermo Fisher Scientific, cat. 17504044), 1X N-2 supplement (Thermo Fisher Scientific, cat. […]

[1] = second compound 0.0316 µM, first compound 0.0316 µM
[2] = second compound 0.0316 µM, first compound 0.1 µM
[3] = second compound 0.1 µM, first compound 0.0316 µM
[4] = second compound 0.1 µM, first compound 0.1 µM
[5] = second compound 0.316 µM, first compound 0.0316 µM
[6] = second compound 0.316 µM, first compound 0.1 µM
[7] = second compound 1 µM, first compound 0.0316 µM
[8] = second compound 1 µM, first compound 0.1 µM
[9] = second compound 3.16 µM, first compound 0.0316 µM
[10] = second compound 3.16 µM, first compound 0.1 µM
[11] = second compound 10 µM, first compound 0.0316 µM
[12] = second compound 10 µM, first compound 0.1 µM
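Also: spheroids exposed to compounds for one week before readout.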
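For viability, T/C in this document: percent of DMSO vehicle wells luminescence so 100% = untreated viability.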

Compound: CC1COCCN1c1cc(C2(S(C)(=N)=O)CC2)nc(-c2ccnc3[nH]ccc23)n1 (centres undefined) + Cc1cccc(N(C)C(=O)C2C(O)CCN2c2nc(C)cc(C(F)(F)F)c2C#N)c1
- IC50 (second compound 0.0316 µM): > 10 µM
- IC50 (second compound 0.1 µM): 2.93 µM
- IC50 (second compound 0.316 µM): 3.36 µM
- IC50 (second compound 1 µM): 4.21 µM
- IC50 (second compound 3.16 µM): 5.46 µM
- IC50 (second compound 10 µM): 4.41 µM
- viability, T/C [1]: 92.5%
- viability, T/C [2]: 93.2%
- viability, T/C (second compound 0.0316 µM, first compound 0.316 µM): 98.9%
- viability, T/C (second compound 0.0316 µM, first compound 1 µM): 70.1%
- viability, T/C (second compound 0.0316 µM, first compound 3.16 µM): 50.9%
- viability, T/C (second compound 0.0316 µM, first compound 10 µM): 50.5%
- viability, T/C [3]: 101%
- viability, T/C [4]: 121%
- viability, T/C (second compound 0.1 µM, first compound 0.316 µM): 98.9%
- viability, T/C (second compound 0.1 µM, first compound 1 µM): 74.4%
- viability, T/C (second compound 0.1 µM, first compound 3.16 µM): 45.8%
- viability, T/C (second compound 0.1 µM, first compound 10 µM): 46.3%
- viability, T/C [5]: 110%
- viability, T/C [6]: 110%
- viability, T/C (second compound 0.316 µM, first compound 0.316 µM): 90.3%
- viability, T/C (second compound 0.316 µM, first compound 1 µM): 83.2%
- viability, T/C (second compound 0.316 µM, first compound 3.16 µM): 47.1%
- viability, T/C (second compound 0.316 µM, first compound 10 µM): 33.8%
- viability, T/C [7]: 108%
- viability, T/C [8]: 97.6%
- viability, T/C (second compound 1 µM, first compound 0.316 µM): 91.5%
- viability, T/C (second compound 1 µM, first compound 1 µM): 76.8%
- viability, T/C (second compound 1 µM, first compound 3.16 µM): 47.5%
- viability, T/C (second compound 1 µM, first compound 10 µM): 45.8%
- viability, T/C [9]: 103%
- viability, T/C [10]: 103%
- viability, T/C (second compound 3.16 µM, first compound 0.316 µM): 90.6%
- viability, T/C (second compound 3.16 µM, first compound 1 µM): 73.8%
- viability, T/C (second compound 3.16 µM, first compound 3.16 µM): 60.4%
- viability, T/C (second compound 3.16 µM, first compound 10 µM): 40.3%
- viability, T/C [11]: 100%
- viability, T/C [12]: 82%
- viability, T/C (second compound 10 µM, first compound 0.316 µM): 93.1%
- viability, T/C (second compound 10 µM, first compound 1 µM): 59.2%
- viability, T/C (second compound 10 µM, first compound 3.16 µM): 59.5%
- viability, T/C (second compound 10 µM, first compound 10 µM): 37.4%

Compound: Cn1ncnc1[C@H]1c2n[nH]c(=O)c3cc(F)cc(c23)N[C@@H]1c1ccc(F)cc1 + Cc1cccc(N(C)C(=O)C2C(O)CCN2c2nc(C)cc(C(F)(F)F)c2C#N)c1
- IC50 (second compound 0.0316 µM): > 0.1 µM
- IC50 (second compound 0.1 µM): > 0.1 µM
- IC50 (second compound 0.316 µM): > 0.1 µM
- IC50 (second compound 1 µM): > 0.1 µM
- IC50 (second compound 3.16 µM): > 0.1 µM
- IC50 (second compound 10 µM): > 0.1 µM
- viability, T/C (second compound 0.0316 µM, first compound 0.000316 µM): 93.3%
- viability, T/C (second compound 0.0316 µM, first compound 0.001 µM): 97.3%
- viability, T/C (second compound 0.0316 µM, first compound 0.00316 µM): 93.7%
- viability, T/C (second compound 0.0316 µM, first compound 0.01 µM): 89%
- viability, T/C [1]: 76.5%
- viability, T/C [2]: 82.1%
- viability, T/C (second compound 0.1 µM, first compound 0.000316 µM): 116%
- viability, T/C (second compound 0.1 µM, first compound 0.001 µM): 95.2%
- viability, T/C (second compound 0.1 µM, first compound 0.00316 µM): 90%
- viability, T/C (second compound 0.1 µM, first compound 0.01 µM): 93.2%
- viability, T/C [3]: 81.8%
- viability, T/C [4]: 65.9%
- viability, T/C (second compound 0.316 µM, first compound 0.000316 µM): 108%
- viability, T/C (second compound 0.316 µM, first compound 0.001 µM): 97.3%
- viability, T/C (second compound 0.316 µM, first compound 0.00316 µM): 90.6%
- viability, T/C (second compound 0.316 µM, first compound 0.01 µM): 88.4%
- viability, T/C [5]: 81.4%
- viability, T/C [6]: 83.1%
- viability, T/C (second compound 1 µM, first compound 0.000316 µM): 93.9%
- viability, T/C (second compound 1 µM, first compound 0.001 µM): 90.2%
- viability, T/C (second compound 1 µM, first compound 0.00316 µM): 93.6%
- viability, T/C (second compound 1 µM, first compound 0.01 µM): 89%
- viability, T/C [7]: 79.3%
- viability, T/C [8]: 77.2%
- viability, T/C (second compound 3.16 µM, first compound 0.000316 µM): 95.6%
- viability, T/C (second compound 3.16 µM, first compound 0.001 µM): 101%
- viability, T/C (second compound 3.16 µM, first compound 0.00316 µM): 94.2%
- viability, T/C (second compound 3.16 µM, first compound 0.01 µM): 77.3%
- viability, T/C [9]: 87.4%
- viability, T/C [10]: 91.9%
- viability, T/C (second compound 10 µM, first compound 0.000316 µM): 95.1%
- viability, T/C (second compound 10 µM, first compound 0.001 µM): 97.7%
- viability, T/C (second compound 10 µM, first compound 0.00316 µM): 102%
- viability, T/C (second compound 10 µM, first compound 0.01 µM): 72.5%
- viability, T/C [11]: 82.9%
- viability, T/C [12]: 83.2%
